Source: article PMC5512161 (Neuropharmacology, 2017)

Legend:
Experiment in all cases: whole-cell patch clamp
Format in all cases: cell-based
α3β2γ2 GABAA receptor = details: inhibition of current by EC30 GABA; -60 mV, pH 7.3, 22-25 °C; called competitive
α1β2 GABAA receptor [1] = details: EC30 GABA, TM2 6' position, -60 mV, pH 7.3
α6β2γ2 GABAA receptor = details: EC30 GABA (1 μM), -60 mV, pH 7.3, biphasic effect
α1β2 GABAA receptor [2] = details: EC30 GABA (0.5 μM), -60 mV, pH 7.3

O=C1Nc2ccc(Cl)cc2[C@@](C#CC2CC2)(C(F)(F)F)O1 [Efavirenz]
IC50 (α3β2γ2 GABAA receptor): 14 ± 6.3 µM
% of control end-application current at 30 μM (α1β2 GABAA receptor [1]): 95 ± 18%
% of control end-application current at 30 μM (α6β2γ2 GABAA receptor): 46 ± 6.1%
% of control end-application current at 30 μM (α1β2 GABAA receptor [2]): 1.6 ± 1.7%
